Results taken from the OPERA property sets (Mansouri et al. 2018).

logP | Structure (SMILES)
-0.22 | Cn1c(=O)[nH]c2[nH]c(=O)n(C)c2c1=O
-1.32 | CN(C=O)c1c(N)n(C)c(=O)n(C)c1=O
-2.03 | CN(C=O)c1c(N)[nH]c(=O)n(C)c1=O
-1.3 | CN(C=O)c1c(N)n(C)c(=O)[nH]c1=O
-0.37 | Cn1c(=O)c2c([nH]c(=O)n2C)n(C)c1=O
-0.52 | Cn1c(=O)c2[nH]c(=O)[nH]c2n(C)c1=O
-0.64 | Cn1c(N)c(NC=O)c(=O)n(C)c1=O

More lines, now with the values behind:

Structure (SMILES) | logP
Cn1c(=O)[nH]c2nc[nH]c2c1=O | -0.27
Cn1cnc2[nH]c(=O)[nH]c(=O)c21 | -0.89
Cn1c(=O)[nH]c(=O)c2[nH]c(=O)[nH]c21 | -1.08
Cn1c(=O)[nH]c2[nH]c(=O)[nH]c(=O)c21 | -1.18
Cn1c(=O)[nH]c2[nH]c(=O)[nH]c2c1=O | -0.57
Cn1c(=O)[nH]c(=O)c2[nH]cnc21 | -0.5
Cn1c(=O)[nH]c(=O)c2c1[nH]c(=O)n2C | -1.33
